Measurements as given in publication PMC4724290 (Synapse (New York, N.Y.), 2015).
Where “and” joins values, the source holds several entries; their conditions need not be identical. Equal values may be shown once. Entries after “also recorded” stand apart in the source; their conditions may differ. Where a name gives a salt, the structure may show the parent alone. Read-outs that look alike come from different tables or passages of the source.

Tests used:
[1] = biological target: T1, σ1 receptors (Mus musculus, UniProt O55242); assay: In vitro σ1 receptor binding, [^3H]; design: species or system CD-1 mouse; conditions: for Selectivity Ki Ratio σ2/σ1: CD-1 mouse whole brain membranes
T1 sequence (O55242 whole entry): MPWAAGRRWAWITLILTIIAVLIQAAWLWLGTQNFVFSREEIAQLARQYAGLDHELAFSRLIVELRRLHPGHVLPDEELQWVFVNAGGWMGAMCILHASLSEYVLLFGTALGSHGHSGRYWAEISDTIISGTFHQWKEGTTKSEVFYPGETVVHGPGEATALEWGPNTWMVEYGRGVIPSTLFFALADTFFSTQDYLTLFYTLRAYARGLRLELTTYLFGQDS

[2] = biological target: T2, σ2 receptors (Mus musculus, UniProt Q8VD00); assay: In vitro σ2 receptor binding, [^3H]DTG/; design: species or system CD-1 mouse
T2 sequence (Q8VD00 1-176): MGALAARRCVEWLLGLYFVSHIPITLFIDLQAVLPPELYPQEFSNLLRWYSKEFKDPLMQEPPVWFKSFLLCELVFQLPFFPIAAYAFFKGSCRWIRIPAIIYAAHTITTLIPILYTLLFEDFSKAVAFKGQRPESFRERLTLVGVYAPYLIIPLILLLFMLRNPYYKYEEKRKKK

[3] = biological target: striatal dopamine transporters (DAT) (Mus musculus, UniProt Q61327); assay: In vivo DAT occupancy: inhibition of [^125I]RTI-121 specific binding in striatum; design: species or system CD-1 mice; conditions: for Inhibition of striatal [^125I]RTI-121 specific binding: 10.0 μmol/kg i.p.
Chain of striatal dopamine transporters (DAT) (Q61327 whole entry): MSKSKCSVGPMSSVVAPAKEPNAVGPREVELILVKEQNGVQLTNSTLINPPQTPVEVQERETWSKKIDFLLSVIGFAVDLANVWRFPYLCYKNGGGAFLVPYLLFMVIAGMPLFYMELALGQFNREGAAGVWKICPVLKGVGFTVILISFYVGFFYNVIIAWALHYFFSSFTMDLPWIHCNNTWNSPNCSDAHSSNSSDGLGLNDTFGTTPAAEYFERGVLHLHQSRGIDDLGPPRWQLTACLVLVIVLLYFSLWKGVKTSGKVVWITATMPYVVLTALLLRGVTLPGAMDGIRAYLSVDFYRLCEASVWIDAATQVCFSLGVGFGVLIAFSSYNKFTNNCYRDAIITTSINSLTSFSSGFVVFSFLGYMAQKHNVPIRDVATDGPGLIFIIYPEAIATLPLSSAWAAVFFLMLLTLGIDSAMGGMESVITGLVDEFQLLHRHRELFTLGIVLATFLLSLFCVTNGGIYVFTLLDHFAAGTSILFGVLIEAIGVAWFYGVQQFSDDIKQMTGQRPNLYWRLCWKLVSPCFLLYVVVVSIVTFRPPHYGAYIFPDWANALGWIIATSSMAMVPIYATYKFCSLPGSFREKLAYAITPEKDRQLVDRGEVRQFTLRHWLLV

[4] = system: CD-1 mice; assay: Locomotor activity: basal and; format: in vivo; conditions: for Effect on basal locomotor activity: i.p., E-IA-DM-PE-PIPZE up to 3.16 μmol/kg, BD1063 3.16 and 31.6 μmol/kg, 60 min
[5] = biological target: T1, σ1 receptors; conditions: ref Lever et al., cited from earlier work
[6] = biological target: DAT; conditions: cited from earlier work
[7] = system: Swiss Webster mice; conditions: doses as low as 0.1 mg/kg (0.29 μmol/kg); ref Matsumoto et al., 2001a; cited from earlier work
[8] = biological target: σ2 receptors; conditions: read-out: Ki for σ2 receptors; ref Kovács and Larson (1995); cited from earlier work
[9] = biological target: σ1 receptors; conditions: read-out: σ1 Ki, ref Lever et al., cited from earlier work
[10] = biological target: T1, σ1 receptors; format: in vivo, CD-1 mice; conditions: for Occupancy of cerebral σ1 receptors: in the absence of (−)-cocaine
[11] = biological target: T1, σ1 receptors; conditions: read-out: Kd for σ1 sites in mouse brain membranes; ref Lever et al., 2012; cited from earlier work
[12] = biological target: T1, σ1 receptors; format: in vivo, CD-1 mice; conditions: saline control, 60 min
[13] = ref Lever et al., 2012, 2014a, 2015; cited from earlier work
[14] = ref Fowler et al., 2007; cited from earlier work
[15] = system: striatal DAT; conditions: Swiss Webster strain; ref Desai and colleagues (2005); cited from earlier work
[16] = system: mice; conditions: cited from earlier work
[17] = 3.0 nM [^3H](+)pentazocine, 37 °C, 180 min
[18] = read-out: Sigma1 IC50, 3.0 nM [^3H](+)pentazocine, 37 °C, 180 min
[19] = 3.0 nM [^3H]DTG/500 nM (+)pentazocine, 25 °C, 60 min
[20] = read-out: Sigma2 IC50, 3.0 nM [^3H]DTG/500 nM (+)pentazocine, 25 °C, 60 min
[21] = ligand i.p. 1 min prior to radioligand, 30 min, unconstrained fit
[22] = homologous saturation, 25 °C, 60 min, two-site model
[23] = 2.5 μCi i.v., 60 min, non-specific defined by BD1063

C=CCN1CCC2(C)c3cc(O)ccc3CC1C2C (single isomer, unassigned; (+)) [(+)-NANM, (+)-N-allylnormetazocine]
Sigma1 nH [1, 17]: 1.06 ± 0.11 | Selectivity Ki Ratio σ2/σ1 [1]: 608 | IC50 [1, 18]: 20.6 ± 1.14 nM | Ki ([1]; read-out: Sigma1 Ki): 13.3 ± 0.74 nM | Sigma2 nH [2, 19]: 0.98 ± 0.12 | IC50 [2, 20]: 8990 ± 850 nM

C=CCN1CCC2(C)c3cc(O)ccc3CC1C2C (single isomer, unassigned; (-)) [(−)-NANM, (−)-N-allylnormetazocine]
Sigma1 nH [1, 17]: 1.09 ± 0.08 | Selectivity Ki Ratio σ2/σ1 [1]: 2.6 | IC50 [1, 18]: 3980 ± 600 nM | Ki ([1]; read-out: Sigma1 Ki): 2550 ± 383 nM | Sigma2 nH [2, 19]: 0.93 ± 0.08 | IC50 [2, 20]: 7460 ± 469 nM

CC(C)=CCN1CC[C@]2(C)c3cc(O)ccc3C[C@H]1[C@H]2C [(+)-Pentazocine, (+)-pentazocine]
Sigma1 nH [1, 17]: 1.09 ± 0.03

CN1CCN(CCc2ccc(Cl)c(Cl)c2)CC1 [BD1063, 1-[2-(3,4-dichlorophenyl)ethyl]-4-methylpiperazine]
Inhibition of striatal [^125I]RTI-121 specific binding [3]: did not inhibit | Increase of (−)-cocaine-induced hyperactivity ([4]; 3.16 μmol/kg i.p., not statistically significant): 17% | Decrease of (−)-cocaine-induced hyperactivity ([4]; 31.6 μmol/kg i.p., not statistically significant): 19% | Effect on basal locomotor activity [4]: did not significantly affect basal activity | Affinity for σ1 receptors relative to (−)-cocaine (higher) [1]: ~200 fold | Affinity for σ1 receptors relative to PD144418 (lower) [1]: 30 fold | IC50 [1]: 9.68 ± 1 nM | Ki [1]: 5.98 ± 0.62 nM | Sigma1 nH [1, 17]: 1.17 ± 0.08 | Selectivity Ki Ratio σ2/σ1 [1]: 127 | IC50 [2]: 843 ± 104 nM | Ki [2]: 762 ± 94 nM | Sigma2 nH [2, 19]: 0.96 ± 0.13 | Occupancy of cerebral σ1 receptors ([5]; doses ≥ 3.16 μmol/kg, in the absence of (−)-cocaine, 2014b): ≥ 89% | ED50 for σ1 occupancy, brain ([5]; same protocol, 2014b): 0.62 µmol/kg | ED50 for σ1 occupancy, heart ([5]; same protocol, 2014b): 0.14 µmol/kg | ED50 for σ1 occupancy, lung ([5]; same protocol, 2014b): 0.20 µmol/kg | ED50 for σ1 occupancy, spleen ([5]; same protocol, 2014b): 1.47 µmol/kg | Ki ([6]; read-out: Ki for the DAT (apparent affinity), ref Garcés-Ramírez et al., 2011): 8000 nM | Protection from (−)-cocaine-induced convulsions [7]: protect

Cc1ccccc1NC(=N)Nc1ccccc1C [DTG, 1,3-di(2-tolyl)guanidine]
IC50 [1]: 173 ± 19.9 nM | Ki [1]: 112 ± 12.9 nM | Sigma1 nH [1, 17]: 0.91 ± 0.14 | Sigma2 nH [2, 19]: 0.88 ± 0.05

COc1ccc2c(c1)[C@]13CCCC[C@@H]1[C@H](C2)N(C)CC3 [Dextromethorphan, dextromethorphan hydrobromide]
IC50 [1]: 97.5 ± 6.9 nM | Ki [1]: 63.1 ± 4.5 nM | Sigma1 nH [1, 17]: 0.88 ± 0.07 | IC50 [2]: 30000 ± 2820 nM | Ki [2]: 26800 ± 2530 nM | Ki [8]: 1740 nM | Ki [9]; 2015: 63 nM

COc1ccc(CCN2CCN(C/C=C/I)CC2)cc1OC [E-IA-DM-PE-PIPZE, E-N-1-(3′-iodoallyl)-N′-4-(3″,4″-dimethoxyphenethyl)-piperazine]
Occupancy of cerebral σ1 receptors ([10]; 0.316 μmol/kg i.p.): 58% | Occupancy of cerebral σ1 receptors ([10]; 3.16 μmol/kg i.p.): 86% | ED50 for σ1 occupancy, brain [10, 21]: 0.23 µmol/kg | ED50 for σ1 occupancy, heart [10, 21]: 0.03 µmol/kg | ED50 for σ1 occupancy, lung [10, 21]: 0.08 µmol/kg | ED50 for σ1 occupancy, spleen [10, 21]: 0.35 µmol/kg | Inhibition of striatal [^125I]RTI-121 specific binding [3]: did not affect radioligand binding; also recorded: No inhibition | Effect on basal locomotor activity [4]: do not significantly; also recorded: not affected | Sigma1 nH [1, 17]: 0.98 ± 0.07 | Selectivity Ki Ratio σ2/σ1 [1]: 215 | IC50 [1, 18]: 10.4 ± 1.39 nM | Ki ([1]; read-out: Sigma1 Ki): 6.73 ± 0.9 nM | Sigma2 nH [2, 19]: 0.98 ± 0.08 | IC50 [2, 20]: 1600 ± 243 nM | Ki ([6]; read-out: Ki for the DAT in vitro, ref Lever et al., 2012): > 10000 nM

Fc1ccc(C(OCCN2CCN(CCCc3ccccc3)CC2)c2ccc(F)cc2)cc1 [GBR12909, 1-{2-[bis-(4-fluorophenyl)methoxy]ethyl}-4-(3-phenylpropyl)piperazine]
inhibition at 10 µmol/kg ([3]; mouse, iv, read-out: Inhibition of specific [^125I]RTI-121 binding): 75%

CC(C(O)c1ccc(O)cc1)N1CCC(Cc2ccccc2)CC1 (stereo not drawn) [Ifenprodil, ifenprodil (+)-tartrate]
IC50 [1]: 35 ± 0.95 nM | Ki [1]: 22.7 ± 0.61 nM | Sigma1 nH [1, 17]: 1.08 ± 0.06 | Selectivity Ki Ratio σ2/σ1 [1]: 0.1 | IC50 [2]: 2.69 ± 0.36 nM | Ki [2]: 2.43 ± 0.32 nM | Sigma2 nH [2, 19]: 0.70 ± 0.07

CCCN1CCC=C(c2cc(-c3ccc(C)cc3)no2)C1 [PD144418]
σ1 receptor occupancy threshold for significant behavioral effects ([5]; 2014a): 80% | Ki ([9]; 2014a): 0.19 nM

CC(C)=CCN1CC[C@]2(C)c3cc(O)ccc3C[C@H]1[C@H]2C [[^3H](+)-Pentazocine]
Maximal site density (Bmax), σ1 receptors ([1]; saturation binding, 37 °C, 180 min): 538 ± 30 fmol/mg protein and 538 fmol/mg protein

Cc1ccccc1NC(=N)Nc1ccccc1C [[^3H]DTG]
Bmax, high affinity, low capacity site (σ2 receptor) [2, 22]: 711 ± 81 fmol/mg protein | Bmax, low affinity, high capacity site [2, 22]: 21307 ± 7059 fmol/mg protein

COc1ccc(CCN2CCN(C/C=C/I)CC2)cc1OC [[^125I]E-IA-DM-PE-PIPZE, [^125I]E-N-1-(3′-iodoallyl)-N′-4-(3″,4″-dimethoxyphenethyl)-piperazine]
Kd [11]: 3.79 nM

COc1ccc(CCN2CCN(C/C=C/[125I])CC2)cc1OC [[^125I]E-IA-DM-PE-PIPZE, [^125I]E-N-1-(3′-iodoallyl)-N′-4-(3″,4″-dimethoxyphenethyl)-piperazine]
Control specific binding to σ1 receptors, brain [10, 23]: 83% | Control specific binding to σ1 receptors, heart [10, 23]: 53% | Control specific binding to σ1 receptors, lung [10, 23]: 66% | Control specific binding to σ1 receptors, spleen [10, 23]: 71% | Specific Binding [^125I]E-IA-DM-PE-PIPZE, Control ([12]; Caudate-putamen): 1.96 ± 0.07 fmol/mg tissue | Specific Binding [^125I]E-IA-DM-PE-PIPZE, Control ([12]; Cortex, Cingulate): 2.69 ± 0.20 fmol/mg tissue | Specific Binding [^125I]E-IA-DM-PE-PIPZE, Control ([12]; Cortex, Entorhinal): 2.52 ± 0.09 fmol/mg tissue | Specific Binding [^125I]E-IA-DM-PE-PIPZE, Control ([12]; Cortex, Frontal): 2.99 ± 0.19 fmol/mg tissue | Specific Binding [^125I]E-IA-DM-PE-PIPZE, Control ([12]; Cortex, Parietal): 3.12 ± 0.14 fmol/mg tissue | Specific Binding [^125I]E-IA-DM-PE-PIPZE, Control ([12]; Cortex, Temporal): 2.93 ± 0.16 fmol/mg tissue | Specific Binding [^125I]E-IA-DM-PE-PIPZE, Control ([12]; Diencephalon, Thalamic nuclei): 2.94 ± 0.10 fmol/mg tissue | Specific Binding [^125I]E-IA-DM-PE-PIPZE, Control ([12]; Diencephalon, Thalamus): 2.57 ± 0.13 fmol/mg tissue | Specific Binding [^125I]E-IA-DM-PE-PIPZE, Control ([12]; Hippocampus, CA1 pyramidal): 2.25 ± 0.12 fmol/mg tissue | Specific Binding [^125I]E-IA-DM-PE-PIPZE, Control ([12]; Hippocampus, CA2 pyramidal): 2.87 ± 0.13 fmol/mg tissue | Specific Binding [^125I]E-IA-DM-PE-PIPZE, Control ([12]; Hippocampus, CA3 pyramidal): 3.34 ± 0.10 fmol/mg tissue | Specific Binding [^125I]E-IA-DM-PE-PIPZE, Control ([12]; Hippocampus, Dentate Gyrus): 3.27 ± 0.08 fmol/mg tissue | Specific Binding [^125I]E-IA-DM-PE-PIPZE, Control ([12]; Hippocampus, Nonpyramidal): 1.84 ± 0.08 fmol/mg tissue | Specific Binding [^125I]E-IA-DM-PE-PIPZE, Control ([12]; Mesencephalon, Inferior Colliculi): 3.50 ± 0.20 fmol/mg tissue | Specific Binding [^125I]E-IA-DM-PE-PIPZE, Control ([12]; Mesencephalon, Periaqueductal Gray): 4.07 ± 0.13 fmol/mg tissue | Specific Binding [^125I]E-IA-DM-PE-PIPZE, Control ([12]; Mesencephalon, Superior Colliculi): 3.50 ± 0.14 fmol/mg tissue | Specific Binding [^125I]E-IA-DM-PE-PIPZE, Control ([12]; Metencephalon, Cerebellum (whole)): 3.18 ± 0.08 fmol/mg tissue | Specific Binding [^125I]E-IA-DM-PE-PIPZE, Control ([12]; Metencephalon, Granular layer): 4.13 ± 0.20 fmol/mg tissue | Specific Binding [^125I]E-IA-DM-PE-PIPZE, Control ([12]; Metencephalon, Molecular layer): 2.38 ± 0.08 fmol/mg tissue | Specific Binding [^125I]E-IA-DM-PE-PIPZE, Control ([12]; White Matter, Corpus callosum): 1.99 ± 0.06 fmol/mg tissue | Selectivity for binding to σ1 over σ2 receptors ([1]; from Table II): 200 fold | Metabolic stability [13]: excellent metabolic stability

(−)-Cocaine hydrochloride
Log D7.4 [14]: 1.31 | ED50 for displacement of striatal binding [15]: 38 µmol/kg | ED50 for maximum stimulatory effects on locomotor activity ([16]; CD-1 mice, 3 h period, ref Thomsen and Caine (2011)): 18.2 mg/kg | ED50 for maximum stimulatory effects on locomotor activity ([16]; CD-1 mice, first hour, ref Carroll et al. (2004)): 10 mg/kg | ED50 for maximum stimulatory effects on locomotor activity ([16]; Swiss Webster mice, 3 h period, ref Thomsen and Caine (2011)): 9.7 mg/kg
